Laboratory results taken from PubChem BioAssay AID2060503 (Molecular Pharmacology Branch, DTP, NCI, 2025).

Test system: 817829-284-R-J1-PDC complex spheroids, viability
Experiment: Anticancer human tumor 817829-284-R-J1-PDC patient-derived colon adenocarcinoma cell line growth inhibition [GQUAD]
Conditions: curve of first compound; second compound 0.0316 µM
Outline: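 Multi-cell-type spheroids of tumor cells with HUVEC and mesenchymal stem cells, treated with drug combinations. Concentrations descend in half-log steps from near clinical Cmax, or from 10 microM where Cmax is unknown; viability read-out.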
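Further: spheroids exposed to agents for 7 days before readout.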

CC(C)n1c(=O)n(C)c2cnc3cc(F)c(-c4ccc(OCCCN5CCCCC5)nc4)cc3c21 + CN(C)c1ccc(Nc2c3ccc(NC(=O)CCN4CCCC4)cc3nc3cc(NC(=O)CCN4CCCC4)ccc23)cc1 and COc1ccc([C@@H](O)c2cc(-c3ncnc4cc(N5CCOCC5)ccc34)c(F)cc2Cl)nn1 + CN(C)c1ccc(Nc2c3ccc(NC(=O)CCN4CCCC4)cc3nc3cc(NC(=O)CCN4CCCC4)ccc23)cc1 cannot be ordered by IC50: over 10000 nM for the first, over 10000 nM for the second.

Going from CC1COCCN1c1cc(-c2ccnn2C)c2ccnc(-c3ccn[nH]3)c2n1 (stereo unspecified) + CN(C)c1ccc(Nc2c3ccc(NC(=O)CCN4CCCC4)cc3nc3cc(NC(=O)CCN4CCCC4)ccc23)cc1 to CC1COCCN1c1cc(C2(S(C)(=N)=O)CC2)nc(-c2ccnc3[nH]ccc23)n1 (stereo unspecified) + CN(C)c1ccc(Nc2c3ccc(NC(=O)CCN4CCCC4)cc3nc3cc(NC(=O)CCN4CCCC4)ccc23)cc1, the IC50 rises from under 31.6 nM to 584 nM.

Going from CC1COCCN1c1cc(C2(O)CC3CCC(C2)O3)c2cnn(-c3ccn[nH]3)c2n1 (stereo unspecified) + CN(C)c1ccc(Nc2c3ccc(NC(=O)CCN4CCCC4)cc3nc3cc(NC(=O)CCN4CCCC4)ccc23)cc1 to Cn1ncnc1[C@H]1c2n[nH]c(=O)c3cc(F)cc(c23)N[C@@H]1c1ccc(F)cc1 + CN(C)c1ccc(Nc2c3ccc(NC(=O)CCN4CCCC4)cc3nc3cc(NC(=O)CCN4CCCC4)ccc23)cc1, the IC50 rises from under 31.6 nM to over 316 nM. The first is the more potent here.

Same assay, conditions: curve of first compound; second compound 0.1 µM

CC(C)n1c(=O)n(C)c2cnc3cc(F)c(-c4ccc(OCCCN5CCCCC5)nc4)cc3c21 + CN(C)c1ccc(Nc2c3ccc(NC(=O)CCN4CCCC4)cc3nc3cc(NC(=O)CCN4CCCC4)ccc23)cc1 and COc1ccc([C@@H](O)c2cc(-c3ncnc4cc(N5CCOCC5)ccc34)c(F)cc2Cl)nn1 + CN(C)c1ccc(Nc2c3ccc(NC(=O)CCN4CCCC4)cc3nc3cc(NC(=O)CCN4CCCC4)ccc23)cc1 cannot be ordered by IC50: over 10000 nM for the first, over 10000 nM for the second.

Compared with CC1COCCN1c1cc(-c2ccnn2C)c2ccnc(-c3ccn[nH]3)c2n1 (stereo unspecified) + CN(C)c1ccc(Nc2c3ccc(NC(=O)CCN4CCCC4)cc3nc3cc(NC(=O)CCN4CCCC4)ccc23)cc1, CC1COCCN1c1cc(C2(S(C)(=N)=O)CC2)nc(-c2ccnc3[nH]ccc23)n1 (stereo unspecified) + CN(C)c1ccc(Nc2c3ccc(NC(=O)CCN4CCCC4)cc3nc3cc(NC(=O)CCN4CCCC4)ccc23)cc1 is higher in IC50: under 31.6 nM for the first, 616 nM for the second. The first is the more potent here.

First: CC1COCCN1c1cc(C2(O)CC3CCC(C2)O3)c2cnn(-c3ccn[nH]3)c2n1 (stereo unspecified) + CN(C)c1ccc(Nc2c3ccc(NC(=O)CCN4CCCC4)cc3nc3cc(NC(=O)CCN4CCCC4)ccc23)cc1
Second: Cn1ncnc1[C@H]1c2n[nH]c(=O)c3cc(F)cc(c23)N[C@@H]1c1ccc(F)cc1 + CN(C)c1ccc(Nc2c3ccc(NC(=O)CCN4CCCC4)cc3nc3cc(NC(=O)CCN4CCCC4)ccc23)cc1
The IC50 of the first is lower: under 31.6 nM for the first, over 316 nM for the second. The first is the more potent here.

Same assay, conditions: curve of first compound; second compound 0.316 µM

CC(C)n1c(=O)n(C)c2cnc3cc(F)c(-c4ccc(OCCCN5CCCCC5)nc4)cc3c21 + CN(C)c1ccc(Nc2c3ccc(NC(=O)CCN4CCCC4)cc3nc3cc(NC(=O)CCN4CCCC4)ccc23)cc1 and COc1ccc([C@@H](O)c2cc(-c3ncnc4cc(N5CCOCC5)ccc34)c(F)cc2Cl)nn1 + CN(C)c1ccc(Nc2c3ccc(NC(=O)CCN4CCCC4)cc3nc3cc(NC(=O)CCN4CCCC4)ccc23)cc1 cannot be ordered by IC50: over 10000 nM for the first, over 10000 nM for the second.

Compared with CC1COCCN1c1cc(-c2ccnn2C)c2ccnc(-c3ccn[nH]3)c2n1 (stereo unspecified) + CN(C)c1ccc(Nc2c3ccc(NC(=O)CCN4CCCC4)cc3nc3cc(NC(=O)CCN4CCCC4)ccc23)cc1, CC1COCCN1c1cc(C2(S(C)(=N)=O)CC2)nc(-c2ccnc3[nH]ccc23)n1 (stereo unspecified) + CN(C)c1ccc(Nc2c3ccc(NC(=O)CCN4CCCC4)cc3nc3cc(NC(=O)CCN4CCCC4)ccc23)cc1 is higher in IC50: under 31.6 nM for the first, 589 nM for the second.

First: CC1COCCN1c1cc(C2(O)CC3CCC(C2)O3)c2cnn(-c3ccn[nH]3)c2n1 (stereo unspecified) + CN(C)c1ccc(Nc2c3ccc(NC(=O)CCN4CCCC4)cc3nc3cc(NC(=O)CCN4CCCC4)ccc23)cc1
Second: Cn1ncnc1[C@H]1c2n[nH]c(=O)c3cc(F)cc(c23)N[C@@H]1c1ccc(F)cc1 + CN(C)c1ccc(Nc2c3ccc(NC(=O)CCN4CCCC4)cc3nc3cc(NC(=O)CCN4CCCC4)ccc23)cc1
The IC50 of the first is lower: under 31.6 nM for the first, over 316 nM for the second. The first is the more potent here.

Same assay, conditions: curve of first compound; second compound 1 µM

Compared with CC(C)n1c(=O)n(C)c2cnc3cc(F)c(-c4ccc(OCCCN5CCCCC5)nc4)cc3c21 + CN(C)c1ccc(Nc2c3ccc(NC(=O)CCN4CCCC4)cc3nc3cc(NC(=O)CCN4CCCC4)ccc23)cc1, COc1ccc([C@@H](O)c2cc(-c3ncnc4cc(N5CCOCC5)ccc34)c(F)cc2Cl)nn1 + CN(C)c1ccc(Nc2c3ccc(NC(=O)CCN4CCCC4)cc3nc3cc(NC(=O)CCN4CCCC4)ccc23)cc1 is lower in IC50: over 10000 nM for the first, 8580 nM for the second. The second is the more potent here.

Compared with CC1COCCN1c1cc(-c2ccnn2C)c2ccnc(-c3ccn[nH]3)c2n1 (stereo unspecified) + CN(C)c1ccc(Nc2c3ccc(NC(=O)CCN4CCCC4)cc3nc3cc(NC(=O)CCN4CCCC4)ccc23)cc1, CC1COCCN1c1cc(C2(S(C)(=N)=O)CC2)nc(-c2ccnc3[nH]ccc23)n1 (stereo unspecified) + CN(C)c1ccc(Nc2c3ccc(NC(=O)CCN4CCCC4)cc3nc3cc(NC(=O)CCN4CCCC4)ccc23)cc1 is higher in IC50: under 31.6 nM for the first, 566 nM for the second.

First: CC1COCCN1c1cc(C2(O)CC3CCC(C2)O3)c2cnn(-c3ccn[nH]3)c2n1 (stereo unspecified) + CN(C)c1ccc(Nc2c3ccc(NC(=O)CCN4CCCC4)cc3nc3cc(NC(=O)CCN4CCCC4)ccc23)cc1
Second: Cn1ncnc1[C@H]1c2n[nH]c(=O)c3cc(F)cc(c23)N[C@@H]1c1ccc(F)cc1 + CN(C)c1ccc(Nc2c3ccc(NC(=O)CCN4CCCC4)cc3nc3cc(NC(=O)CCN4CCCC4)ccc23)cc1
The IC50 of the first is lower: under 31.6 nM for the first, over 316 nM for the second. The first is the more potent here.

Same assay, conditions: curve of first compound; second compound 3.16 µM

Compared with CC(C)n1c(=O)n(C)c2cnc3cc(F)c(-c4ccc(OCCCN5CCCCC5)nc4)cc3c21 + CN(C)c1ccc(Nc2c3ccc(NC(=O)CCN4CCCC4)cc3nc3cc(NC(=O)CCN4CCCC4)ccc23)cc1, COc1ccc([C@@H](O)c2cc(-c3ncnc4cc(N5CCOCC5)ccc34)c(F)cc2Cl)nn1 + CN(C)c1ccc(Nc2c3ccc(NC(=O)CCN4CCCC4)cc3nc3cc(NC(=O)CCN4CCCC4)ccc23)cc1 is lower in IC50: over 10000 nM for the first, 2950 nM for the second. The second is the more potent here.

Compared with CC1COCCN1c1cc(-c2ccnn2C)c2ccnc(-c3ccn[nH]3)c2n1 (stereo unspecified) + CN(C)c1ccc(Nc2c3ccc(NC(=O)CCN4CCCC4)cc3nc3cc(NC(=O)CCN4CCCC4)ccc23)cc1, CC1COCCN1c1cc(C2(S(C)(=N)=O)CC2)nc(-c2ccnc3[nH]ccc23)n1 (stereo unspecified) + CN(C)c1ccc(Nc2c3ccc(NC(=O)CCN4CCCC4)cc3nc3cc(NC(=O)CCN4CCCC4)ccc23)cc1 is higher in IC50: under 31.6 nM for the first, 569 nM for the second.

Going from CC1COCCN1c1cc(C2(O)CC3CCC(C2)O3)c2cnn(-c3ccn[nH]3)c2n1 (stereo unspecified) + CN(C)c1ccc(Nc2c3ccc(NC(=O)CCN4CCCC4)cc3nc3cc(NC(=O)CCN4CCCC4)ccc23)cc1 to Cn1ncnc1[C@H]1c2n[nH]c(=O)c3cc(F)cc(c23)N[C@@H]1c1ccc(F)cc1 + CN(C)c1ccc(Nc2c3ccc(NC(=O)CCN4CCCC4)cc3nc3cc(NC(=O)CCN4CCCC4)ccc23)cc1, the IC50 rises from under 31.6 nM to over 316 nM. The first is the more potent here.

Same assay, conditions: curve of first compound; second compound 10 µM

Work on CC(C)n1c(=O)n(C)c2cnc3cc(F)c(-c4ccc(OCCCN5CCCCC5)nc4)cc3c21 + CN(C)c1ccc(Nc2c3ccc(NC(=O)CCN4CCCC4)cc3nc3cc(NC(=O)CCN4CCCC4)ccc23)cc1 yielded an IC50 of 414 nM.
